Measurements published in publication PMC8596838, “Xylose‐Configured Cyclophellitols as Selective Inhibitors for Glucocerebrosidase” (Chembiochem, 2021).
Read-outs that look alike come from different tables or passages of the source.

Key:
[1] = biological target: T1, rhGBA (recombinant human GBA, Imiglucerase) (Homo sapiens, UniProt P04062, R534H); assay: Fluorogenic substrate (4-MU-β-D-glucoside) enzymatic assay, rhGBA; format: biochemical; conditions: for IC50: incubation time 30 min, enzymatic assay, ±SD, n=3, read-out: In vitro apparent IC50 rhGBA
T1 construct: purchased Sanofi Genzyme (Cambridge, MA, USA)
T1 sequence (P04062 40-536 R534H): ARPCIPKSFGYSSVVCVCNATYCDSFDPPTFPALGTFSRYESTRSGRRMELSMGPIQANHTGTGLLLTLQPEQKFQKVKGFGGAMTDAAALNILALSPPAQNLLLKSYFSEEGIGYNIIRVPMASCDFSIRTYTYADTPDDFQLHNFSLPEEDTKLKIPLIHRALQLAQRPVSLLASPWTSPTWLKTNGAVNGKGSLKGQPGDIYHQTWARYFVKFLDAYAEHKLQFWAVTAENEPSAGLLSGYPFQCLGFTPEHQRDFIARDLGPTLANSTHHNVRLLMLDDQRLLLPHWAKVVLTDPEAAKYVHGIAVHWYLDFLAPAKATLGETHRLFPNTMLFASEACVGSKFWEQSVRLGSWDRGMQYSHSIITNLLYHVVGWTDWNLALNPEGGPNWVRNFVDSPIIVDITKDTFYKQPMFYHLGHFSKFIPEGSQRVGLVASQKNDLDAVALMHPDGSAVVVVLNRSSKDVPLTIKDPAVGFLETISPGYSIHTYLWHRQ
Method: Using fluorogenic substrate‐based assays, we determined apparent IC50 values at 30 min incubation time of the xylo‐cyclophellitols in rhGBA, and GBA2 and GBA3 lysates of cells expressing only each of the enzymes specifically.
(§1) Enzyme activity assays: All assays were performed with lysates of HEK293T cells or zebrafish larvae in 96‐well plates at 37 °C. Samples were diluted with McIlvaine buffer (150 mM citric acid‐Na2HPO4) to a final volume of 25 μL, at pH appropriate for each enzyme. Assays were performed by incubating the samples with 100 μL 4‐methylumbelliferyl‐β‐D‐glucoside substrates diluted in McIlvaine buffer (with 0.1 % (w/v) bovine serum albumin (BSA)) for a period of 30 min or 3 h. The substrate mixtures used for each enzyme were as follows: GBA, 3.75 mM 4‐MU‐β‐D‐glucopyranoside (Glycosynth, Warrington Cheshire, UK) at pH 5.2, supplemented with 0.2 % (w/v) sodium taurocholate, 0.1 % (v/v) Triton X‐100, 0.1 % (w/v) bovine serum albumin (BSA); GBA2, 3.75 mM 4 MU‐β‐D‐glucopyranoside at pH 5.8; GBA3, 3.75 mM 4‐MU‐β‐D‐glucopyranoside at pH 6.0. After stopping the enzyme reaction with 200 μL 1 M NaOH‐glycine (pH 10.3), 4‐methylumbelliferone fluorescence was measured with a fluorimeter LS55 (Perkin Elmer, Waltham, MA, USA) with λEX 366 nm and λEM 445 nm. Enzyme activities were determined by subtraction of background (measured for incubations without enzyme). IC50 values were determined exactly as earlier described.[36]
(§2) The IC50 values were determined using a fluorogenic enzymatic assay. For GBA, 3.16 ng (53 fmol) of rhGBA, (recombinant human GBA, Imiglucerase) obtained from Sanofi Genzyme (Cambridge, MA, USA), was prepared in 12.5 μL McIlvaine buffer (150 mM, pH 5.2) supplemented with 0.1 % (v/v) Triton X‐100, and 0.2 % (w/v) sodium taurocholate, 0.1 % (w/v) bovine serum albumin (BSA). The enzyme was incubated with 12.5 μL of inhibitors diluted in McIlvaine buffer (150 mM, pH 5.2) at 37 °C for 30 min. In the case of GBA2 or GBA3, lysates of GBA/GBA2 KO HEK293T cells overexpressing GBA2 or GBA3, respectively where used. The enzymatic activity of GBA, GBA2 and GBA3 were measured with 4MU‐β‐D‐glucoside substrate as described above.

GBA2 = biological target: T2, GBA2 (Homo sapiens, UniProt Q9HCG7); assay: Fluorogenic substrate enzymatic assay, lysate of GBA/GBA2 KO HEK293T cells overexpressing GBA2; format: biochemical; conditions: for (Ratio) GBA2/GBA / GBA2/GBA ratio, 3 h: IC50 ratio; for increase in GBA:GBA2 selectivity window compared to the conduritol analogue (13 or 14): IC50 ratio GBA2/GBA
T2 construct: expressed in transfected cells; host or cells: HEK293T (GBA/GBA2 KO background for the fluorogenic assay; endogenous-GBA background with GBA2 and GBA3 overexpressed for ABPP and intact-cell assays)
T2 sequence (Q9HCG7 1-927): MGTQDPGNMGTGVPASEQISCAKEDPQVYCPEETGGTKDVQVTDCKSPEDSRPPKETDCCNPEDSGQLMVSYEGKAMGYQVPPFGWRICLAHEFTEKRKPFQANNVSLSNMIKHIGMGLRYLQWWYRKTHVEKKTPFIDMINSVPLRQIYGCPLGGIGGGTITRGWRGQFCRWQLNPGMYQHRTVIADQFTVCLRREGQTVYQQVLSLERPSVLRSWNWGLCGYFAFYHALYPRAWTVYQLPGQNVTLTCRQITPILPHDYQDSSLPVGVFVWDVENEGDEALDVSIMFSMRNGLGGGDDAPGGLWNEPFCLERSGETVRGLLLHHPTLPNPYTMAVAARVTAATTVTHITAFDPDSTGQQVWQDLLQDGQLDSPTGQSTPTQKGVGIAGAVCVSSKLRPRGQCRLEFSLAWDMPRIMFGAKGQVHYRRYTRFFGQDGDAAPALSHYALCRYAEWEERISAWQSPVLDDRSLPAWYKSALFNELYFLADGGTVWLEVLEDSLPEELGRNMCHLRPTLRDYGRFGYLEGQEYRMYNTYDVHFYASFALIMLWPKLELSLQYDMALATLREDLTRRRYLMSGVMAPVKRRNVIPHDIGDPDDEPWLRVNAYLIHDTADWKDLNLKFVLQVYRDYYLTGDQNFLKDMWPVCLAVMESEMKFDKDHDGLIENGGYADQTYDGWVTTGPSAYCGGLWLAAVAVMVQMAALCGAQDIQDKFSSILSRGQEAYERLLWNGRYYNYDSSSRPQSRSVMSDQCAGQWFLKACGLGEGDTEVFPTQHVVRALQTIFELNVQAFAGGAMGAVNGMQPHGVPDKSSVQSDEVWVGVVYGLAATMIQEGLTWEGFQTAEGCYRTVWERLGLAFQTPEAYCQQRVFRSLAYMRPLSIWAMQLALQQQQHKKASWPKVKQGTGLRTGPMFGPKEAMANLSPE
Method: as §1
as §2, with “The enzyme was incubated with 12.5 μL of inhibitors diluted in McIlvaine buffer (150 mM, pH 5.2) at 37 °C for 30 min.” left out

[2] = incubation time 30 min, enzymatic assay, ±SD, n=3, read-out: In vitro apparent IC50 GBA2
[3] = 30 min incubation time, read-out: apparent IC50 GBA2
[4] = enzymatic assay performed for 3 h, n=3, read-out: In vitro apparent IC50 GBA2, 3 h

Row | Compound | IC50 [1] [nM] | (Ratio) GBA2/GBA (GBA2; in vitro, 30 min) | IC50 (GBA2; [2]) [nM] | IC50 (GBA2; [3]) [nM] | increase in GBA:GBA2 selectivity window compared to the conduritol analogue (13 or 14) (GBA2; in vitro 3 h) | GBA2/GBA ratio, 3 h (GBA2; in vitro 3 h) | IC50 (GBA2; [4]) [nM] | increase in inhibitory activity towards GBA2 of aziridines relative to epoxide analogues (GBA2; in vitro 3 h) | potency against GBA compared to unsubstituted xylo-cyclophellitol aziridine 2 ([1]; in vitro, 30 min) [fold] | potency against GBA2 compared to 2 (GBA2; in vitro, 30 min)
1 | CN1/C(=C/C=C/C=C/C2=[N+](CCCCCC(=O)NCc3cn(CCCCCCCCN4[C@H]5[C@H](O)[C@@H](O)[C@H](O)C[C@H]54)nn3)c3ccccc3C2(C)C)C(C)(C)c2ccccc21 (stereo partly shown) [ABP 6] | 6.44 ± 0.49 | 84 | 544 ± 110 |  |  |  |  |  |  | 
2 | CN1/C(=C/C=C/C=C/C2=[N+](CCCCCC(=O)NCc3cn(C[C@@H]4[C@@H](O)[C@H](O)[C@@H](O)[C@@H]5O[C@H]45)nn3)c3ccccc3C2(C)C)C(C)(C)c2ccccc21 [ABP 9, reference compound] | 45.2 ± 4.54 | > 111 |  |  |  |  |  |  |  | 
3 | O[C@@H]1[C@@H](O)[C@H](O)C[C@H]2O[C@@H]12 [compound 1, xylo‐cyclophellitol] | 2670 ± 94.5 | >19 | > 50000 | > 25000 | seven‐fold increase | 272 | 122000 ± 30200 |  |  | 
4 | O[C@@H]1[C@@H](O)[C@H](O)C[C@H]2N[C@@H]12 [compound 2, β‐D‐xylo‐Cyclophellitol aziridine] | 719 ± 196 | 44 | 31600 ± 926 | > 25000 | three‐fold increase | 22 | 5310 ± 120 | 10–20 fold |  | 
5 | OC[C@@H]1[C@@H](O)[C@H](O)[C@@H](O)[C@@H]2O[C@H]12 [compound 3, cyclophellitol] | 400 ± 12.4 | 0.4 | 148 ± 7.51 |  |  |  |  |  |  | 
6 | OC[C@@H]1[C@@H](O)[C@H](O)[C@@H](O)[C@@H]2N[C@H]12 [compound 4, cyclophellitol aziridine, reference compound] | 341 ± 5.82 | 0.8 | 279 ± 44.5 |  |  |  |  |  |  | 
7 | [N-]=[N+]=NCCCCCCCCN1[C@H]2[C@H](O)[C@@H](O)[C@H](O)C[C@H]21 (stereo partly shown) [compound 5] | 1.2 ± 0.06 | 5317 | 6380 ± 1150 |  |  |  |  |  | 600 | five‐fold higher
